Measurements from article PMC11480993, “Combining Data-Driven and Structure-Based Approaches in Designing Dual PARP1-BRD4 Inhibitors for Breast Cancer Treatment” (Journal of Chemical Information and Modeling, 2024).
Where two headings read alike, the source gives them in different places.

What was measured:
PARP1 [1] = test system: PARP1; design: method as in PMID 34813314, PMID 35091172, PMID 33532187, PMID 35442700, PMID 24481311; conditions: known dual PARP1-BRD4 inhibitors ref 15-19; cited from earlier work
BRD4 [2] = conditions: cited from earlier work
MDA-MB-231 = test system: MDA-MB-231; design: method as in PMID 34813314, PMID 35091172, PMID 33532187, PMID 35442700, PMID 24481311; conditions: 3 days; breast cancer ref 15-19; cited from earlier work
MDA-MB-468 = test system: MDA-MB-468; design: method as in PMID 34813314, PMID 35091172, PMID 33532187, PMID 35442700, PMID 24481311; conditions: 3 days; breast cancer ref 15-19; cited from earlier work
PARP1 [3] = molecular target: PARP1 (Homo sapiens, UniProt P09874); assay: In vitro PARP1 enzymatic activity (ELISA, biotinylated NAD+, luminescence); type: biochemical
PARP1 (Homo sapiens, UniProt P09874), sequence (P09874 whole entry): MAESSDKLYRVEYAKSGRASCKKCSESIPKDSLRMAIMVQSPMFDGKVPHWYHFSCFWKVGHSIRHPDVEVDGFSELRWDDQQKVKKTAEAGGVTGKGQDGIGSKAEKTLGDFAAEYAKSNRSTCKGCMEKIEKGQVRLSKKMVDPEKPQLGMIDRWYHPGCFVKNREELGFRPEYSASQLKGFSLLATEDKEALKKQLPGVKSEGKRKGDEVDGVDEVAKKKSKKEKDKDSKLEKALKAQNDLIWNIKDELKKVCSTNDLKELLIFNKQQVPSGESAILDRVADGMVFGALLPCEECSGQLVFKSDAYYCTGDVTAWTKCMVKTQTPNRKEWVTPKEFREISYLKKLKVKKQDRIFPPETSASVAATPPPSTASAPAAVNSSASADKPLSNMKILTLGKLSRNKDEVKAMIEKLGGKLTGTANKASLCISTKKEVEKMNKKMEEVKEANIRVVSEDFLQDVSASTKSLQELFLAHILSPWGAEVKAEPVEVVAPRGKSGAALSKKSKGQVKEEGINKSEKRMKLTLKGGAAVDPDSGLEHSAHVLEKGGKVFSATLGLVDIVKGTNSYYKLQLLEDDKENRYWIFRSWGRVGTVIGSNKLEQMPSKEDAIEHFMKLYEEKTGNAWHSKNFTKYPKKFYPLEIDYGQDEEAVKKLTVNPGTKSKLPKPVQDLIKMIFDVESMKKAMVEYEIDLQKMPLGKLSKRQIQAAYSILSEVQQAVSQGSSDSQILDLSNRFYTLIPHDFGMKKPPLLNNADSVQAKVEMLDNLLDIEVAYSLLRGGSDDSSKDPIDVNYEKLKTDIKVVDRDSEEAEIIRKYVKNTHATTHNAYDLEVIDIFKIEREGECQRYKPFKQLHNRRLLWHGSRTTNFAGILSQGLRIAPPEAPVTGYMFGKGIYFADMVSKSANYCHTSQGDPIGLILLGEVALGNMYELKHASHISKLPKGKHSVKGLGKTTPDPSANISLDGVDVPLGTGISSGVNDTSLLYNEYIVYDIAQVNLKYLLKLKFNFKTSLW
Procedure: The inhibition of the tested compounds on PARP1 enzymatic activity was determined by ELISA in 96-well plates. Each well was precoated with histone (20 μg/mL) diluted in 100 μL of PBS buffer (10 mM NaH2PO4, 100 mM Na2HPO4, 150 mM NaCl, pH 7.4) by incubation at 4 °C overnight. […] The reaction was initiated by the addition of 20 μL of PARP1 (50 ng/well) at 30 °C for 1 h. Then the reaction solution was added to 50 μL of streptavidin conjugated HRP. The assay was performed at 30 °C for an additional 30 min. Finally, 100 μL of solution (H2O2 and luminol in citrate buffer 0.1 M, pH 5.4) was added and luminescent signal was measured using a multiwell spectrophotometer (Molecular Devices SpectraMax M5 microplate reader).

SW1990 cell = test system: SW1990 cell; design: method as in PMID 34813314, PMID 35091172, PMID 33532187, PMID 35442700, PMID 24481311; conditions: 4 days; pancreatic cancer ref 15-19; cited from earlier work
CFPAC-1 cell = test system: CFPAC-1 cell; design: method as in PMID 34813314, PMID 35091172, PMID 33532187, PMID 35442700, PMID 24481311; conditions: 4 days; pancreatic cancer ref 15-19; cited from earlier work
Capan-1 cell = test system: Capan-1 cell; design: method as in PMID 34813314, PMID 35091172, PMID 33532187, PMID 35442700, PMID 24481311; conditions: 4 days; pancreatic cancer ref 15-19; cited from earlier work
MCF-7 cells = assay: Cell viability (MTT), MCF-7; type: cell-based; conditions: Homo sapiens, MCF7, 96 h; 4-day treatment, wild-type BRCA
Procedure: (§1) MDA-MB-231, MDA-MB-436, and MCF-7 cells were seeded into 96-well plates with the number of 5 × 10^3 in each cell and allowed to incubate for 24 h. Subsequently, various concentrations of the test compounds (ranging from 100 to 0.78 μM with twice gradient dilution) were introduced. After 4 days of incubation, MTT solution was applied, and the cells were incubated for an additional 4 h. Following the removal of the supernatant, the violet crystals were dissolved in 200 μL of DMSO, and the absorbance was measured at 570 nm.

MDA-MB-231 cells = assay: Cell viability (MTT), MDA-MB-231; type: cell-based; conditions: Homo sapiens, MDA-MB-231, 96 h; 4-day treatment, wild-type BRCA
Procedure: as §1

MDA-MB-436 cells = assay: Cell viability (MTT), MDA-MB-436; type: cell-based; conditions: Homo sapiens, MDA-MB-436, 96 h; 4-day treatment, BRCA mutant
Procedure: as §1

BRD4 [4] = assay: Western blot, BRD4 expression in MCF-7 cells; type: cell-based; conditions: MCF-7, 48 h treatment
Procedure: (§2) Following a 48 h treatment, cellular proteins were extracted using RIPA cell lysis buffer containing protease and phosphatase inhibitor cocktail. The protein concentration was assessed by using a BCA assay. Subsequently, equal amounts of these proteins were loaded onto an SDS-PAGE gel and transferred onto a PVDF membrane. The protein-loaded membrane was then blocked using a commercial blocking solution (Beyotime, China) and sequentially incubated with primary and secondary antibodies. Protein bands were visualized using an ECL chemiluminescence kit and quantified using ImageJ software.

PARP1 [5] = assay: Western blot, PARP1 expression in MCF-7 cells; type: cell-based; conditions: MCF-7, 48 h treatment
Procedure: as §2

BRD4 [6] = molecular target: BRD4 (Homo sapiens, UniProt O60885); assay: BRD TR-FRET assay, BRD4; type: binding
Procedure: The assay was performed by TR-FRET technology using a BRD and its corresponding ligand (BET). The TR-FRET signal from the assay is correlated with the amount of ligand binding to the bromodomain. All of the binding reactions were conducted at room temperature. The 20 μL reaction mixture in Assay Buffer contains either bromodomains, BET Ligand, and the indicated amount of inhibitor. For the negative control (blank), 5 μL of the assay buffer was added instead of the BET ligand. The reaction mixture was incubated for 120 min. After the incubation with the ligand, the TR-FRET signal was measured using a Tecan Infinite M1000 plate reader.

[7] = Solubility observed during activity testing; type: physicochemical; conditions: compared with HF2
Procedure: The inhibitory effects of both enzymes were measured for HF1 and HF2. […] The large discrepancy in BRD4 activities could be attributed to the nonplanar scaffold of HF1, which appears to fit more effectively into the hydrophobic environment formed by Val87, Phe83, and Ile146 (Figure 5B, right). […] Before proceeding further, we made the decision to examine PJ34, a potent and nonselective PARP1 inhibitor,[13] to assess its impact on BRD4 inhibition. […] Given the strong PARP1 activity and relatively low micromolar BRD4 activity of PJ34 relative to HF1 and HF2, we contemplated whether substituting PJ34’s scaffold with that of HF1 could synergistically enhance BRD4 affinity while maintaining strong PARP1 affinity.

[8] = known dual PARP1-BRD4 inhibitors ref 15-19

COc1cc(OC)c2c(=O)[nH]c(-c3ccc(OCCOc4ccccc4C(N)=O)cc3)nc2c1 [ADTL-BPI1901]
IC50 (PARP1 [1]): 4600 nM | IC50 (BRD4 [2]; [8]): 400 nM | IC50 (MDA-MB-231): 15600 ± 1720 nM | IC50 (MDA-MB-468): 6420 ± 1310 nM

COc1ccccc1S(=O)(=O)Nc1ccc2c(c1)CN(C)C(=O)N2 [PFI-1, reference compound]
inhibition at 10 µM (PARP1 [3]; 10 μM, read-out: PARP1 inhibition rate): 10% | IC50 (BRD4 [2]): 220 nM

COc1cc(OC)c2c(=O)[nH]c(-c3cc(C)c(OCCO)c(C)c3)nc2c1 [RVX-208, apabetalone, reference compound]
activity against PARP1 (PARP1 [3]; at 10 μM): no activity

Cc1noc(C)c1-c1ccc2c(c1)C(c1ccccc1)N(Cc1nc3c(C(N)=O)cccc3[nH]1)C(=O)N2C (stereo not shown) [III-7]
IC50 (PARP1 [1]): 49 nM | IC50 (BRD4 [2]; [8]): 202 nM | IC50 (SW1990 cell): 1340 ± 160 nM | IC50 (CFPAC-1 cell): 1310 ± 110 nM | IC50 (Capan-1 cell): 1710 ± 210 nM

Cc1sc2c(c1C)C(c1ccc(Cl)cc1)=N[C@@H](CC(=O)OC(C)(C)C)c1nnc(C)n1-2 [JQ1, reference compound]
IC50 (MCF-7 cells): 900 ± 100 nM | IC50 (MDA-MB-231 cells): 1200 ± 400 nM | IC50 (MDA-MB-436 cells): 4700 ± 1900 nM | BRD4 expression (BRD4 [4]): significantly enhances its levels | PARP1 expression (PARP1 [5]): significant increase

CN(C)CC(=O)Nc1ccc2[nH]c(=O)c3c(c2c1)CCCC3 [HF3, 2-(dimethylamino)-N-(6-oxo-5,6,7,8,9,10-hexahydrophenanthridin-2-yl)acetamide]
IC50 (PARP1 [3]): 16 nM | IC50 (BRD4 [6]): 28800 ± 6990 nM | IC50 (BRD4 [6]; value of the text): ~28000 nM

CN(C)CC(=O)Nc1ccc2[nH]c(=O)c3ccccc3c2c1 [PJ34, 2-(dimethylamino)-N-(6-oxo-5,6-dihydrophenanthridin-2-yl)acetamide, reference compound]
IC50 (BRD4 [6]): 2070 ± 588 nM

CC[C@@H]1C(=O)N(C)c2cnc(N(C)c3ccc(-c4nc5c(C(N)=O)cccc5[nH]4)cc3OC)nc2N1C1CCCC1 [III-16]
IC50 (PARP1 [1]): 13 nM | IC50 (BRD4 [2]; [8]): 101 nM | IC50 (SW1990 cell): 980 ± 130 nM

COc1cc(OC)c2c(=O)[nH]c(-c3cccc(Cc4n[nH]c(=O)c5ccccc45)c3)nc2c1 [BP44]
IC50 (PARP1 [1]): 197 nM | IC50 (BRD4 [2]; [8]): 238 nM | IC50 (MDA-MB-231): 6610 ± 580 nM | IC50 (MDA-MB-468): 3010 ± 830 nM

Cc1cc(S(=O)(=O)Nc2ccc3[nH]c(=O)c4c(c3c2)CCCC4)ccc1F [HF1, 4-fluoro-3-methyl-N-(6-oxo-5,6,7,8,9,10-hexahydrophenanthridin-2-yl)benzenesulfonamide]
IC50 (PARP1 [3]): 94 nM | IC50 (BRD4 [6]): 3560 ± 951 nM | BRD4 potency relative to HF2 (BRD4 [6]; more potent than HF2): 10 times | IC50 (BRD4 [6]; value of the text): 3500 nM | IC50 (MCF-7 cells): 11400 nM | IC50 (MDA-MB-231 cells): 31900 nM | solubility during activity testing [7]: higher solubility

O=C(c1cc(Cc2n[nH]c(=O)c3ccccc23)ccc1F)N1CCN(C(=O)C2CC2)CC1 [Olaparib, olaparib, reference compound]
IC50 (MCF-7 cells): 27200 ± 3500 nM | IC50 (MDA-MB-231 cells): 13900 ± 2600 nM | IC50 (MDA-MB-436 cells): 2200 nM

CCc1cc2cc(NC(=O)CN(C)C)ccc2[nH]c1=O [HF5, 2-(dimethylamino)-N-(3-ethyl-2-oxo-1,2-dihydroquinolin-6-yl)acetamide]
IC50 (PARP1 [3]): 736 nM | IC50 (BRD4 [6]): 34300 ± 7900 nM | IC50 (BRD4 [6]; value of the text): ~34300 nM

Cc1cc(S(=O)(=O)Nc2ccc3[nH]c(=O)c4ccccc4c3c2)ccc1F [HF2]
IC50 (PARP1 [3]): 339 ± 86 nM | IC50 (BRD4 [6]): 32600 ± 6340 nM
